Test results taken from PMC9950431, “A bivalent remipede toxin promotes calcium release via ryanodine receptor activation” (Nature Communications, 2023).
“Also recorded” adds a separate entry of the source.

Tests used:
RyR1 = target: T1, RyR1 (Oryctolagus cuniculus, UniProt P11716); test: Single channel electrophysiology of RyR1 channels inserted into lipid bilayers (exposure to peptide); type: biochemical, New Zealand white rabbit (skeletal SR); details: for relPo: without WO, relative to control
T1 construct: skeletal SR vesicles were isolated from the back and leg muscles of mature female New Zealand white rabbits; from tissue; host or cells: rabbit back and leg skeletal muscle, sarcoplasmic reticulum vesicles
T1 sequence (P11716 whole entry): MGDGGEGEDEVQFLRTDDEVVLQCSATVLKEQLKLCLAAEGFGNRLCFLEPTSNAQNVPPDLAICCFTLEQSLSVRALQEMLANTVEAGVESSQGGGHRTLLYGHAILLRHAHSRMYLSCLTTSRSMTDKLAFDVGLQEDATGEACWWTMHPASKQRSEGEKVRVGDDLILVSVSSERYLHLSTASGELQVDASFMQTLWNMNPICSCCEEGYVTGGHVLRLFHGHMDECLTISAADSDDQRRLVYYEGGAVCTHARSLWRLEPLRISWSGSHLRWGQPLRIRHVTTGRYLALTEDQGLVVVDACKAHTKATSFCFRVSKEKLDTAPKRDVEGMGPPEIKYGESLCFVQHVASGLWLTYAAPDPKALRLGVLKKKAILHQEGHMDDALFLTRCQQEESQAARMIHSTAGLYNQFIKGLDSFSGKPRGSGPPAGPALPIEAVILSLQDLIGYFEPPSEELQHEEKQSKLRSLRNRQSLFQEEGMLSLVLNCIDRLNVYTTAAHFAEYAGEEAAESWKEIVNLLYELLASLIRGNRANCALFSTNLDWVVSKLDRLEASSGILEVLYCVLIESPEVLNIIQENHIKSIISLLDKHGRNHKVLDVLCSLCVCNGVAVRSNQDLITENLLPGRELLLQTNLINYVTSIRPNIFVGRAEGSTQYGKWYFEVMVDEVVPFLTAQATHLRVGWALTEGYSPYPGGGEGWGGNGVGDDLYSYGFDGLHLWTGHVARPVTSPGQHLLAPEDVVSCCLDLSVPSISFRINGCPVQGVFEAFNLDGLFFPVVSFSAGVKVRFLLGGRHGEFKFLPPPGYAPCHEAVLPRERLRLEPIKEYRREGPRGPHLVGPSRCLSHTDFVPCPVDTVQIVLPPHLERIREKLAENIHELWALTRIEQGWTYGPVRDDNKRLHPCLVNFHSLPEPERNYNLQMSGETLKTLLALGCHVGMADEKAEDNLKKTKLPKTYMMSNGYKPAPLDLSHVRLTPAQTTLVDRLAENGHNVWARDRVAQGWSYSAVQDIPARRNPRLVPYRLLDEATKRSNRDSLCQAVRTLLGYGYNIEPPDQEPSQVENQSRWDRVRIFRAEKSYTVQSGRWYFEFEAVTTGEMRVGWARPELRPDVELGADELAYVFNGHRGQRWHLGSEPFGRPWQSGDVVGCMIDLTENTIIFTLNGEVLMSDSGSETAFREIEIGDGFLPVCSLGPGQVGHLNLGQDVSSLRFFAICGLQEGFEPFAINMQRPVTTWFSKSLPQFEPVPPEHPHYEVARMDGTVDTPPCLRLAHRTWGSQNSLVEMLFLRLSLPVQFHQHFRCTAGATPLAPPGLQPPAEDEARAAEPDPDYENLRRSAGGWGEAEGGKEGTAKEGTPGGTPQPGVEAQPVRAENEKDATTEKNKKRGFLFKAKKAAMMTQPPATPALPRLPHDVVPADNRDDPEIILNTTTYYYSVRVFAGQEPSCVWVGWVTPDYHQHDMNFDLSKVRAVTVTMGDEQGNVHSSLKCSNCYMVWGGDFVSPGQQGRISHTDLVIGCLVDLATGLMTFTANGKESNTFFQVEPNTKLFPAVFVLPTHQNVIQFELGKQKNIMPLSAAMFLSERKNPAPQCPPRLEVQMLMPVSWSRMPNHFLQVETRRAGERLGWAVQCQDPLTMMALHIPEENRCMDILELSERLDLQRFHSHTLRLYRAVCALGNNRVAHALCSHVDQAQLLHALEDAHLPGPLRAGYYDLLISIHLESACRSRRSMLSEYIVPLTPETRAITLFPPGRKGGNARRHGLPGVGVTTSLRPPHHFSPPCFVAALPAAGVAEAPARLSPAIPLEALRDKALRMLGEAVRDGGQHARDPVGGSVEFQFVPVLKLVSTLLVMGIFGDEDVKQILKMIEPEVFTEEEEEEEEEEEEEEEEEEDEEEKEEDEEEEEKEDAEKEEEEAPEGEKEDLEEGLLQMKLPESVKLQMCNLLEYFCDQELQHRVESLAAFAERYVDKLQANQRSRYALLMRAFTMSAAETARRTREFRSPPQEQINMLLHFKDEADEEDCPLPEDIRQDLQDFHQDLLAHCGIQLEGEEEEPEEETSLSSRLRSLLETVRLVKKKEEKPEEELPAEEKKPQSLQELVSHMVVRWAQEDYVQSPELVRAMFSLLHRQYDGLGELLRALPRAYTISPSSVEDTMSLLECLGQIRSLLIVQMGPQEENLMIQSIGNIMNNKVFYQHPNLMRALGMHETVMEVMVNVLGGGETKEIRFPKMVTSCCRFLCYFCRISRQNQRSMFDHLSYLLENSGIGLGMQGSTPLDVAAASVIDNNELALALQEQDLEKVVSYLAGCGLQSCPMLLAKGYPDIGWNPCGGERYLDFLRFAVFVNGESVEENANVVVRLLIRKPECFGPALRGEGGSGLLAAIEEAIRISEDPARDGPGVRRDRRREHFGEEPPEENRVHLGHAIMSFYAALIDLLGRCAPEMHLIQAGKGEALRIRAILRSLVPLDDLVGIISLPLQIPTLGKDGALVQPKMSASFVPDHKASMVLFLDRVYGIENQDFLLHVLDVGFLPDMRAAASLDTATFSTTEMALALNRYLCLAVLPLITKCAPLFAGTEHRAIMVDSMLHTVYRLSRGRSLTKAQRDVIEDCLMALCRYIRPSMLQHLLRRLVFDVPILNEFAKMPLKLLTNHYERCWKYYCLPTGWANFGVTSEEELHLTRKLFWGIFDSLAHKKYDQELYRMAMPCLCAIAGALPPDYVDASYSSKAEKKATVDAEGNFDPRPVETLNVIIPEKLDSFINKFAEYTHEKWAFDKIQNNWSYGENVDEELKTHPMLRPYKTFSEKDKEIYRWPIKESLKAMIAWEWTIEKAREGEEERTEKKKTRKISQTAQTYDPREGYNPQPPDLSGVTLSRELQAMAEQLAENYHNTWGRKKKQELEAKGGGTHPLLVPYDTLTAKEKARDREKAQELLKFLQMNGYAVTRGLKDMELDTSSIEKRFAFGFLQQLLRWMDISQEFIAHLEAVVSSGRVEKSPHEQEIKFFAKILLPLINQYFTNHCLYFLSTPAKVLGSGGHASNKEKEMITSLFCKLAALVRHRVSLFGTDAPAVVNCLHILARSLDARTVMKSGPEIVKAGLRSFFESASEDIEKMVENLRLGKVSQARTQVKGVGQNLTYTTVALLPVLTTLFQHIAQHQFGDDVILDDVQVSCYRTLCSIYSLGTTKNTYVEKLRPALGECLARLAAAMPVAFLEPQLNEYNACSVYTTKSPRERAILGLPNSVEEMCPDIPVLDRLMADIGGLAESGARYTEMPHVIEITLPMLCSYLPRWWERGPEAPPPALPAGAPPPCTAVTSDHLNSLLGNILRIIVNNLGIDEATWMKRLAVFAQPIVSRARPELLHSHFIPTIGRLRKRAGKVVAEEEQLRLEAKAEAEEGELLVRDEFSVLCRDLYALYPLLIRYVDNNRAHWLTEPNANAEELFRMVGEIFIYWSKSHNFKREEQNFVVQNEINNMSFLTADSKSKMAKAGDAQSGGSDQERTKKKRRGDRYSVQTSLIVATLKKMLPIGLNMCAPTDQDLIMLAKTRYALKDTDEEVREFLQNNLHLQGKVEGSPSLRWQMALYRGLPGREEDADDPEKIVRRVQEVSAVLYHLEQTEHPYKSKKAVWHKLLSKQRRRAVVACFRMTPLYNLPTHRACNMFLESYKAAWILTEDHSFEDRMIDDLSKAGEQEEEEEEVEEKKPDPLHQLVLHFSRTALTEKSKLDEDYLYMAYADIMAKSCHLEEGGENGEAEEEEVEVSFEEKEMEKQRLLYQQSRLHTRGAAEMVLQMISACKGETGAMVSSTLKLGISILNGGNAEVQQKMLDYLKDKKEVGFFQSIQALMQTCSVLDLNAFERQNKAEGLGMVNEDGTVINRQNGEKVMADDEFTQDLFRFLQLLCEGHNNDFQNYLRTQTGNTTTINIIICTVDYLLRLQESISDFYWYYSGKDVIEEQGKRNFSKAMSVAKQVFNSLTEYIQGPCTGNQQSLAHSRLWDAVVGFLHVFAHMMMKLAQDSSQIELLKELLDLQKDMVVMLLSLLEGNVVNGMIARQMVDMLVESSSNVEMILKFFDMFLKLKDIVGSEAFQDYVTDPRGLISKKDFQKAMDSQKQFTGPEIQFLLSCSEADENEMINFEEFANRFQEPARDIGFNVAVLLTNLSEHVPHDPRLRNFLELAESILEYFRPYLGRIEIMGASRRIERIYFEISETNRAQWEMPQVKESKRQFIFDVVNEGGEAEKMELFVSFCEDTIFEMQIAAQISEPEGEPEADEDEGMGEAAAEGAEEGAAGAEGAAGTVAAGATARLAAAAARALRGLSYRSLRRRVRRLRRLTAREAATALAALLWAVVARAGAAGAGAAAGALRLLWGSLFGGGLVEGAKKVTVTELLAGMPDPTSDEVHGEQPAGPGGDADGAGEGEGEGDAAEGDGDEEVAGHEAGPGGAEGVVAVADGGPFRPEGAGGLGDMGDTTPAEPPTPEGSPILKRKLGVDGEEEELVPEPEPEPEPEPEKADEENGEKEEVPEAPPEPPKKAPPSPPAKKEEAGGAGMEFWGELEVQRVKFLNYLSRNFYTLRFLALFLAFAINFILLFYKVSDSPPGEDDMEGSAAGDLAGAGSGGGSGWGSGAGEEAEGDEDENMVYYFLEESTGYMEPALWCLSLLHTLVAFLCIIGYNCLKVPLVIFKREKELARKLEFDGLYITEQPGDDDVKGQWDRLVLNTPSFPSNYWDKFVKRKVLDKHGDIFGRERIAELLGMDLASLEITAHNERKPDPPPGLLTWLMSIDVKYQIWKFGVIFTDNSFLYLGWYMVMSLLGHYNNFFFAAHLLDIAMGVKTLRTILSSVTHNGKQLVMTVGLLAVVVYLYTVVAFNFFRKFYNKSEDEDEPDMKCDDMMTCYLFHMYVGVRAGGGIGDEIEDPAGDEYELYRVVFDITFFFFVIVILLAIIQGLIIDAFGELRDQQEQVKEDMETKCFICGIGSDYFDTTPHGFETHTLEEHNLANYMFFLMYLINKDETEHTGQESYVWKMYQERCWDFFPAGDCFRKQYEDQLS
Experimental: Cardiac SR was prepared from mature female crossbred sheep hearts, and skeletal SR vesicles were isolated from the back and leg muscles of mature female New Zealand white rabbits[29],[54] with approval from the ANU Animal Experiment Ethics Committee Protocol Number A2015/35. […] Solutions for vesicle incorporation contained (mM): cis 230 caesium methanesulfonate (CsMS); 20 CsCl; 1 CaCl2 and 10 […] (TES) pH 7.4 and trans 30 CsMS; 20 CsCl; 1 CaCl2 10 TES; pH 7.4. […] Following incorporation, 200 mM CsMS was added to the trans solution and the cis solution exchanged with recording solution containing (mM): 230 CsMS; 20 CsCl; 0.001 CaCl2;10 TES and pH 7.4, with [Ca^2+] set by a [BAPTA] determined using a Ca^2+ electrode. The cytoplasmic and luminal solutions contained 1 μM and 1 mM Ca^2+ respectively, with symmetrical 250/250 mM CsMS. Bilayer voltage was switched between +40 mV and −40 mV (cytoplasmic voltage relative to grounded luminal solution) every 30 s. The activity of the RyR channels used here included 1 µM Ca^2+ in the cytoplasmic solution and 1 mM Ca^2+ in the luminal solution[29],[55]. Electrophysiology experiments were analysed using Channel 2 (P.W. Gage, M. Smith, Australian National University) and Channel 3 (N.W. Laver, University of Newcastle, Australia) software, available from the authors upon request. Statistical analyses were performed using Microsoft Excel (Office 365). […] Following most incorporation events, a single channel only was active in the bilayer and channel open probability (Po), mean open time (To), mean closed time (Tc) and open event frequency (Fo) were measured. When 2–4 channels were active in a bilayer, PO was approximated from the fractional mean current (I’F), i.e., mean current divided by maximum current. I’F is equal to PO in a single channel and indicates the average PO of multiple channels in a bilayer. […] Experiments at UN also included a minority of multi-channel experiments. The bilayer rigs, solution composition, source of channels, data acquisition and analyses methods were all identical.
Statistical analysis of single channel data was performed using Excel spreadsheets and embedded Students t-test functions or a sign test as indicated in the graphs in Figs. 1 and 3.

[1] = test system: SH-SY5Y neuroblastoma cells; test: FLIPR intracellular Ca2+ assay, SH-SY5Y cells (direct response); type: cell-based, human; details: Xt3a 3 µM
Experimental: (§1) SH-SY5Y human neuroblastoma cells (European Collection of Authenticated Cell Culture, Sigma Aldrich, 94030304-1VL) were cultured in RPMI media (ThermoFisher Scientific, Scoresby, Australia) supplemented with 15% foetal bovine serum and L-glutamine (1 mM) and passaged at approximately 80% confluency with TrypLE Express (Thermo Fisher, Australia). For fluorescence imaging, cells were plated on CellBIND (Corning) 384-well black-walled imaging plates at a density of 20,000–30,000 cells/well in complete media and cultured for 48 h at 37 °C/5% CO2.
Briefly, SH-SY5Y cells were loaded with Calcium 4 no-wash dye (Molecular Devices) diluted in physiological salt solution (composition in mM: NaCl 140, D-glucose 11.5, KCl 5.9, MgCl2 1.4, NaH2PO4 1.2, NaHCO3 5, CaCl2 1.8, HEPES 10) for 30 min at 37 °C. A two-addition FLIPR^Tetra (Molecular Devices) protocol using the following settings was used to measure fluorescence responses: excitation 470–495 nm; emission 515–575 nm; excitation intensity 80%; excitation duration 0.8 s; gain 140; read interval 1/s; read number 300/addition. […] Raw fluorescence readings were converted to response over baseline using the analysis tool Screenworks 3.1.1.4 (Molecular Devices) and were expressed relative to the maximum increase in fluorescence of control responses and plotted using GraphPad Prism 9.3.1.

α7 nAChR = test: FLIPR Ca2+ assay, inhibition of endogenous α7 nAChR; type: cell-based, human; details: for Ca2+ response relative to control response: 3 µM Xt3a pre-treatment, choline 30 μM/PNU-120596 10 μM, over 300 s
Experimental: as §1
Briefly, SH-SY5Y cells were loaded with Calcium 4 no-wash dye (Molecular Devices) diluted in physiological salt solution (composition in mM: NaCl 140, D-glucose 11.5, KCl 5.9, MgCl2 1.4, NaH2PO4 1.2, NaHCO3 5, CaCl2 1.8, HEPES 10) for 30 min at 37 °C. A two-addition FLIPR^Tetra (Molecular Devices) protocol using the following settings was used to measure fluorescence responses: excitation 470–495 nm; emission 515–575 nm; excitation intensity 80%; excitation duration 0.8 s; gain 140; read interval 1/s; read number 300/addition. Responses mediated via endogenously expressed ion channels were elicited by addition of: choline (30 μM)/PNU-120596 (10 μM) for α7 nAChR-mediated responses; nicotine (30 μM) for α3β2/α3β4 nAChR-mediated responses; KCl (90 mM)/CaCl2 (5 mM) for CaV1.3-mediated responses; KCl (90 mM)/CaCl2 (5 mM) + nifedipine (10 μM) for CaV2.2-mediated responses; vertridine (70 μM) for NaV1.2-mediated responses; and veratridine (4 μM)/OD1 (300 nM) for NaV1.7-mediated responses. Raw fluorescence readings were converted to response over baseline using the analysis tool Screenworks 3.1.1.4 (Molecular Devices) and were expressed relative to the maximum increase in fluorescence of control responses and plotted using GraphPad Prism 9.3.1.
In the cell-based FLIPR assays statistical analysis was performed using GraphPad Prism 9.3.1. Statistical significance was defined as p < 0.05, and determined by one-sample t-test assessing difference to the control value of 100%. In α7 nAChR, α3-containing nAChR, CaV1.3, CaV2.2, NaV1.2 and NaV1.7 channels (Supplementary Fig. 5B), with distribution (t) and degrees of freedom (df) being: t = 0.9683, df = 2 (α7); t = 1.338, df = 2 (α3); t = 1.775, df = 2 (NaV1.2); t = 1.478

Substance: φ-Xibalbin3-Xt3a
- activity against RyR1 (discussion) (RyR1): even more potent than IpTxA
- relPo (RyR1; 10 pM Xt3a, mean (sem in row below)): 4.209
- relPo (RyR1; 10 pM Xt3a, replicate CT1012 n): 4.171
- relPo (RyR1; 10 pM Xt3a, replicate CT1013 n): 17.6667
- relPo (RyR1; 10 pM Xt3a, replicate CT1024 n): 1.745
- relPo (RyR1; 10 pM Xt3a, replicate CT1051 n): 0.553
- relPo (RyR1; 10 pM Xt3a, replicate CT1052 n): 1.086
- relPo (RyR1; 10 pM Xt3a, replicate CT1055 n): 3.339
- relPo (RyR1; 10 pM Xt3a, replicate CT1143 n): 0.669
- relPo (RyR1; 10 pM Xt3a, replicate CT1144 n): 11.3
- relPo (RyR1; 10 pM Xt3a, replicate CT1145 n): 13.6431
- relPo (RyR1; 10 pM Xt3a, replicate CT1146 n): 1.397
- channel open probability (PO) relative to baseline (RyR1; 10 pM to 1 µM): significant changes in all Xt3a concentrations tested
- substate level, % of maximum conductance (RyR1; 100 pM Xt3a, −40 mV, prolonged gating to substate levels): < 50%
- relPo (RyR1; 100 pM Xt3a, mean (sem in row below)): 2.735
- relPo (RyR1; 100 pM Xt3a, replicate CT1012 n): 1.829
- relPo (RyR1; 100 pM Xt3a, replicate CT1013 n): 17
- relPo (RyR1; 100 pM Xt3a, replicate CT1024 n): 1.169
- relPo (RyR1; 100 pM Xt3a, replicate CT1051 n): 0.6185
- relPo (RyR1; 100 pM Xt3a, replicate CT1052 n): 1.17
- relPo (RyR1; 100 pM Xt3a, replicate CT1055 n): 1.101
- relPo (RyR1; 100 pM Xt3a, replicate CT1143 n): 1.262
- relPo (RyR1; 100 pM Xt3a, replicate CT1144 n): 6.375
- relPo (RyR1; 100 pM Xt3a, replicate CT1145 n): 3.125
- relPo (RyR1; 100 pM Xt3a, replicate CT1146 n): 1.411
- decline in PO compared with 10 nM Xt3a (RyR1; 0.1–1 µM Xt3a): ~ 50%
- full conductance channel openings (high affinity activation) (RyR1; Xt3a up to 10 nM): led to an increase in full conductance channel openings
- voltage-dependent promotion of channel substate activity (RyR1; −40 mV vs +40 mV, RyR1 and RyR2): greater in the presence of nanomolar concentrations of Xt3a in RyR1 than in RyR2
- increase in intracellular Ca2+ [1]: did not elicit an increase in intracellular Ca^2+; also recorded: does not elicit an increase in intracellular Ca2+ responses
- Ca2+ response relative to control response (α7 nAChR; replicate 1): 99.1155%
- Ca2+ response relative to control response (α7 nAChR; replicate 2): 100.788%
- Ca2+ response relative to control response (α7 nAChR; replicate 3): 96.222%
- inhibition of Ca2+ responses (α7 nAChR; Xt3a 3 µM): did not inhibit Ca^2+ responses
